# How the values were obtained:
# [1] = biological target: T1, carbohydrate recognition domain of human galectin-3 (Galectin-3-CRD) (Homo sapiens, UniProt P17931); assay: Galectin-3 activity microscale thermophoresis assay; format: binding; details: label-free MST, 20 nM galectin-3-CRD; average of all assays (± standard deviation), each assay in triplicate
# T1 construct: The carbohydrate recognition domain of human galectin-3 (Servesto Galectin-3-CRD) was diluted; purchased Servesto
# Procedure: The carbohydrate recognition domain of human galectin-3 (Servesto Galectin-3-CRD) was diluted with PBS+0.1% F127 to 40 nM. Separately, a 40 uM stock of Compound 45 in DMSO was diluted down to 4 uM in PBS+0.1% F127 and serially diluted in sixteen steps using a dilution factor of 1 to 2 in 10% DMSO+PBS+0.1% F127. To each sample in the serial dilution of Compound 45, 10 ul of 40 nM Galectin-3-CRD was added, yielding final concentrations of 20 nM galectin-3-CRD and 5% DMSO+PBS+0.1% F127. NT.LabelFree Zero background Standard Treated Capillaries were filled with the prepared solutions then loaded into the Monolith NT Label-Free MST instrument. The reaction was measured with 100% excitation power of LED and medium (40%) MST power. Binding curves and Kd values were generated using MO affinity analysis. Each assay was run in triplicate. Some compounds were subjected to more than one assay run in triplicate.
# galectin-3 = biological target: T2, galectin-3 (Homo sapiens, UniProt P17931); assay: Galectin-3 activity ELISA assay: inhibition of galectin-3 binding to immobilized Galβ1-3GlcNAc polymer; details: inhibition of galectin-3 binding to Galβ1-3GlcNAc polymer, average (± standard deviation) where assayed more than once
# T2 construct: purchased IBL IBATGP0414
# T2 sequence (P17931 whole entry): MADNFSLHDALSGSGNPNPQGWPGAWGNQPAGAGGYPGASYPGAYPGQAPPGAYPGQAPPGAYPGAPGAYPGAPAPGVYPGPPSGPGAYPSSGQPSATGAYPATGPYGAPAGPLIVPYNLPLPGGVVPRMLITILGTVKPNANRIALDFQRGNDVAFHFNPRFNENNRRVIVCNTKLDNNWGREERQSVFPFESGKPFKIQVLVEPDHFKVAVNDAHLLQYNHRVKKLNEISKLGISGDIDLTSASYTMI
# Description: An inhibition assay may be used to screen for antagonists of galectin-3. For example, an assay may be performed to characterize the capability of a compound described herein to inhibit interaction of galectin-3 with a Galβ1-3GlcNAc carbohydrate structure. The inhibition assay may be a competitive binding assay, which allows the determination of IC50 values. By way of example, a Galβ1-3GlcNAc polymer may be immobilized onto a matrix; a composition may be added to reduce nonspecific binding; the immobilized Galβ1-3GlcNAc polymer may be contacted with the candidate compound in the presence of galectin-3 group under conditions and for a time sufficient to permit galectin-3 to bind to the immobilized Galβ1-3GlcNAc polymer; the immobilized Galβ1-3GlcNAc polymer may be washed; and the amount of galectin-3 bound to the immobilized Galβ1-3GlcNAc polymer may be detected. Variations of such steps can be readily and routinely accomplished by a person of ordinary skill in the art.
# Galectin-3 antagonists were evaluated for their ability to inhibit binding of galectin-3 to a Galβ1-3GlcNAc carbohydrate structure. The detailed protocol was as follows. A 1 μg/mL suspension of a Galβ1-3GlcNAcβ1-3Galβ1-4GlcNAcβ-PAA-biotin polymer (Glycotech, catalog number 01-096) was prepared. A 100 μL aliquot of the polymer was added to the wells of a 96-well streptavidin-coated plate (R&D Systems, catalog number CP004). A 100 μL aliquot of 1× Tris Buffered Saline (TBS, Sigma, catalog number T5912-10X) was added to control wells. The polymer was allowed to bind to the streptavidin-coated wells for 1.5 hours at room temperature. The contents of the wells were discarded, and 200 μL of 1×TBS containing 1% bovine serum albumin (BSA) was added to each well as a blocking reagent and the plate was kept at room temperature for 30 minutes. The wells were washed three times with 1×TBS containing 0.1% BSA. A serial dilution of test compounds was prepared in a separate V-bottom plate (Corning, catalog number 3897). A 75 μL aliquot of the highest concentration of the compound to be tested was added to the first well in a column of the V-bottom plate, then 15 μL were serially transferred into 60 μL 1×TBS through the remaining wells in the column to generate a 1 to 5 serial dilution. A 60 μL aliquot of 2 μg/mL galectin-3 (IBL, catalog number IBATGP0414) was added to each well in the V-bottom plate. A 100 μL aliquot of the galectin-3 test compound mixture was transferred from the V-bottom plate into the assay plate containing the Galβ1-3GlcNAc polymer. Four sets of control wells in the assay plate were prepared in duplicate containing 1) both Galβ1-3GlcNAc polymer and galectin-3, 2) neither the polymer nor galectin-3, 3) galectin-3 only, no polymer, or 4) polymer only, no galectin-3. The plate was gently rocked for 1.5 hours at room temperature. The wells were washed four times with TBS/0.1% BSA. A 100 μL aliquot of anti-galectin-3 antibody conjugated to horse radish peroxidase (R&D Systems, from DGAL30 kit) was added to each well, and the plate was kept at room temperature for 1 hour. The wells were washed four times with TBS/0.1% BSA. A 100 μL aliquot of TMB substrate solution was added to each well. The TMB substrate solution was prepared by making a 1:1 mixture of TMB Peroxidase Substrate (KPL, catalog number 5120-0048) and Peroxidase Substrate Solution B (KPL, catalog number 5120-0037). The plate was kept at room temperature for 10 to 20 minutes. The color development was stopped by adding 100 uL 10% phosphoric acid (RICCA Chemical Co., catalog number 5850-16). The absorbance at 450 nm (A450) was measured using a FlexStation 3 plate reader (Molecular Devices). Plots of A450 versus test compound concentration and IC50 determinations were made using GraphPad Prism 6. The number of assays run (n) for each compound is recorded in the following table.
# T1 sequence (P17931 118-248 limits assumed): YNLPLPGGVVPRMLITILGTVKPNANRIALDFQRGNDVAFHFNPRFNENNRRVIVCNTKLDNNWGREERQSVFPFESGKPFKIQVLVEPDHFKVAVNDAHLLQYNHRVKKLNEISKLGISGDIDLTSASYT
Kd [1] [nM],IC50 (galectin-3) [nM],Structure (SMILES)
20,216,[2H]C([2H])([2H])OC1C(n2cc(-c3cc(F)c(F)c(F)c3)nn2)[C@@H](O)C(CO)O[C@H]1[C@H](OCc1ccc(Br)cc1)C(=O)NC(C)(C)CO (stereo partly shown) [Compound 74]
21,938,[2H]C([2H])([2H])OC1C(n2cc(-c3cc(F)c(F)c(F)c3)nn2)[C@@H](O)C(CO)O[C@H]1[C@H](OCc1ccc(Br)cc1)C(=O)NC1(CO)CC1 (stereo partly shown) [Compound 75]
31,470,COC1C(n2cc(-c3cc(F)c(F)c(F)c3)nn2)[C@@H](O)C(CO)O[C@H]1[C@H](OCc1ccc(Br)cc1)C(=O)O (stereo partly shown) [Compound 76]
570,2910,"COC1C(n2cc(-c3cc(F)c(F)c(F)c3)nn2)[C@@H](O)C(CO)O[C@H]1[C@H](OCc1ccc(Cl)cc1)C(=O)N(C)C (stereo partly shown) [Compound 83, reference compound]"
18,386,"CNC(=O)[C@@H](OCc1ccc(Cl)cc1)[C@@H]1OC(CO)[C@H](O)C(n2cc(-c3cc(F)c(F)c(F)c3)nn2)C1OC (stereo partly shown) [Compound 84, reference compound]"
12,397,"COCCCNC(=O)[C@@H](OCc1ccc(Cl)cc1)[C@@H]1OC(CO)[C@H](O)C(n2cc(-c3cc(F)c(F)c(F)c3)nn2)C1OC (stereo partly shown) [Compound 85, reference compound]"
0.4,184,"CC(C)OC(=O)[C@@H](OCc1ccc(Cl)cc1)[C@@H]1OC(CO)[C@H](O)C(n2cc(-c3cc(F)c(F)c(F)c3)nn2)C1O (stereo partly shown) [Compound 86, reference compound]"
20,724,"COC1C(n2cc(-c3cc(F)c(F)c(F)c3)nn2)[C@@H](O)C(CO)O[C@H]1[C@H](OCc1ccc(Cl)cc1)C(=O)OC(C)C (stereo partly shown) [Compound 87, reference compound]"
67,416,"[2H]C([2H])([2H])OC1C(n2cc(-c3cc(F)c(F)c(F)c3)nn2)[C@@H](O)C(CO)O[C@H]1[C@H](OCc1ccc(Cl)cc1)C(=O)NC(C)C (stereo partly shown) [Compound 88, reference compound]"
70,427,"COC1C(n2cc(-c3cc(F)c(F)c(F)c3)nn2)[C@@H](O)C(CO)O[C@H]1[C@H](OCc1ccc(Cl)cc1)C(=O)NC(C)C (stereo partly shown) [Compound 89, reference compound]"
25,1190,"[2H]C([2H])([2H])OC1C(n2cc(-c3cc(F)c(F)c(F)c3)nn2)[C@@H](O)C(CO)O[C@H]1[C@H](OCc1ccc(Cl)c(F)c1)C(=O)NC(C)C (stereo partly shown) [Compound 90, reference compound]"
